melting point	SMILES
150 to 153 °C	Nc1cccc(C(=O)Nc2cccc(Nc3cc(-c4cccc5c4oc4ccccc45)ncn3)c2)c1.O=C(O)C(F)(F)F
216 to 219 °C	CC(C)(C)OC(=O)NCc1cccc(C(=O)Nc2cccc(Nc3cc(-c4cccc5c4oc4ccccc45)ncn3)c2)c1 [Compound 29, tert-Butyl N-{3-[3-(6-Dibenzofuran-4-yl-pyrimidin-4-ylamino)-phenylcarbamoyl]-benzyl}-carbamate]
138 to 145 °C	NCC(C(=O)Nc1cccc(Nc2cc(-c3cccc4c3oc3ccccc34)ncn2)c1)c1ccc(Cl)c(Cl)c1.O=C(O)C(F)(F)F (stereo not drawn) [Compound 76, 3-Amino-N-[3-(6-dibenzofuran-4-yl-pyrimidin-4-ylamino)-phenyl]-2-(3,4-dichlorophenyl)-propionamide trifluoroacetat]
304 to 319 °C	CN1CCN(c2ccc(C(=O)Nc3ccc(Nc4cc(-c5cccc6c5oc5ccccc56)ncn4)cc3)cc2)CC1 [Compound 14, N-[4-(6-Dibenzofuran-4-yl-pyrimidin-4-ylamino)-phenyl]-4-(4-methyl-piperazin-1-yl)-benzamide]
136 to 138 °C	Nc1ccccc1C(=O)Nc1ccc(Nc2cc(-c3cccc4c3oc3ccccc34)ncn2)cc1.O=C(O)C(F)(F)F [Compound 50, 2-Amino-N-[4-(6-dibenzofuran-4-yl-pyrimidin-4-ylamino)-phenyl]-benzamide trifluoroacetate]
310 to 312 °C	O=C(Nc1ccc(Nc2cc(-c3cccc4c3oc3ccccc34)ncn2)cc1)c1ccc(N2CCOCC2)nc1 [Compound 15, N-[4-(6-Dibenzofuran-4-yl-pyrimidin-4-ylamino)-phenyl]-6-morpholin-4-yl-nicotinamide]
251 to 255 °C	NCc1ccc(CC(=O)Nc2ccc(Nc3cc(-c4cccc5c4oc4ccccc45)ncn3)cc2)cc1.O=C(O)C(F)(F)F [Compound 66, 2-(4-Aminomethyl-phenyl)-N-[4-(6-dibenzofuran-4-yl-pyrimidin-4-ylamino)-phenyl]-acetamide trifluoroacetate]
285 to 300 °C	CN(C)c1ccc(C(=O)Nc2ccc(Nc3cc(-c4cccc5c4oc4ccccc45)ncn3)cc2)cc1 [Compound 2, N-[4-(6-Dibenzofuran-4-yl-pyrimidin-4-ylamino)-phenyl]-4-dimethylamino-benzamide]
311 to 321 °C	CC(C)(C)OC(=O)NCc1ccc(C(=O)Nc2ccc(Nc3cc(-c4cccc5c4oc4ccccc45)ncn3)cc2)cc1 [Compound 17, tert-Butyl N-{4-[4-(6-dibenzofuran-4-yl-pyrimidin-4-ylamino)-phenylcarbamoyl]-benzyl}-carbamate]
> 250 °C	CC(C)(C)OC(=O)NCCc1ccc(C(=O)Nc2ccc(Nc3cc(-c4cccc5c4oc4ccccc45)ncn3)cc2)cc1 [Compound 23, tert-Butyl N-(2-{4-[4-(6-Dibenzofurane-4-yl-pyrimidin-4-ylamino)-phenylcarbamoyl]phenyl}-ethyl)-carbamate]
246 to 249 °C	CN(C)c1ccccc1C(=O)Nc1ccc(Nc2cc(-c3cccc4c3oc3ccccc34)ncn2)cc1 [Compound 5, N-[4-(6-Dibenzofuran-4-yl-pyrimidin-4-ylamino)-phenyl]-2-dimethylamino-benzamide]
87 to 90 °C	NCCc1ccc(C(=O)Nc2cccc(Nc3cc(-c4cccc5c4oc4ccccc45)ncn3)c2)cc1.O=C(O)C(F)(F)F [Compound 58, 4-(2-Amino-ethyl)-N-[3-(6-dibenzofuran-4-yl-pyrimidin-4-ylamino)-phenyl]-benzamide trifluoroacetate]
125 to 130 °C	Nc1ccc(CC(=O)Nc2ccc(Nc3cc(-c4cccc5c4oc4ccccc45)ncn3)cc2)cc1.O=C(O)C(F)(F)F
245 to 251 °C	CN(C)c1cccc(C(=O)Nc2cccc(Nc3cc(-c4cccc5c4oc4ccccc45)ncn3)c2)c1 [Compound 48, N-[3-(6-Dibenzofuran-4-yl-pyrimidin-4-ylamino)-phenyl]-3-dimethylamino-benzamide]
> 250 °C	O=C(Nc1ccc(Nc2cc(-c3cccc4c3oc3ccccc34)ncn2)cc1)c1ccc(CN2CCOCC2)cc1 [Compound 13, N-[4-(6-Dibenzofuran-4-yl-pyrimidin-4-ylamino)-phenyl]-4-morpholin-4-ylmethyl-benzamide]
160 to 163 °C	CC(C)(C)OC(=O)Nc1cccc(C(=O)Nc2cccc(Nc3cc(-c4cccc5c4oc4ccccc45)ncn3)c2)c1 [Compound 28, tert-Butyl {3-[3-(6-dibenzofuran-4-yl-pyrimidin-4-ylamino)-phenylcarbamoyl]-phenyl}-carbamate]
270 to 274 °C	CN1CCN(Cc2ccc(C(=O)Nc3ccc(Nc4cc(-c5cccc6c5oc5ccccc56)ncn4)cc3)cc2)CC1 [Compound 3, N-[4-(6-Dibenzofuran-4-yl-pyrimidin-4-ylamino)-phenyl]-4-(4-methyl-piperazin-1-ylmethyl)-benzamide]

melting point	SMILES
239 to 241 °C	CC(C)(C)OC(=O)NCCc1ccc(C(=O)Nc2cccc(Nc3cc(-c4cccc5c4oc4ccccc45)ncn3)c2)cc1 [Compound 26, tert-Butyl N-(2-{4-[3-(6-dibenzofuran-4-yl-pyrimidin-4-ylamino)-phenylcarbamoyl]-phenyl}-ethyl)-carbamate]
214 °C	CC(C)(C)OC(=O)Nc1ccc(C(=O)Nc2cccc(Nc3cc(-c4cccc5c4oc4ccccc45)ncn3)c2)cc1 [Compound 30, tert-Butyl N-{4-[3-(6-Dibenzofuran-4-yl-pyrimidin-4-ylamino)-phenylcarbamoyl]-phenyl}-carbamate]
233 to 236 °C	CC(C)(C)OC(=O)NCc1ccc(C(=O)Nc2cccc(Nc3cc(-c4cccc5c4oc4ccccc45)ncn3)c2)cc1 [Compound 25, tert-Butyl {4-[3-(6-dibenzofuran-4-yl-pyrimidin-4-ylamino)-phenylcarbamoyl]-benzyl}-carbamate]
323 to 325 °C	O=C(Nc1ccc(Nc2cc(-c3cccc4c3oc3ccccc34)ncn2)cc1)c1ccccc1 [Compound 7, N-[4-(6-Dibenzofuran-4-yl-pyrimidin-4-ylamino)-phenyl]-benzamide]
248 to 250 °C	NCc1cc(C(=O)Nc2ccc(Nc3cc(-c4cccc5c4oc4ccccc45)ncn3)cc2)ccn1.O=C(O)C(F)(F)F [Compound 65, 2-Aminomethyl-N-[4-(6-dibenzofuran-4-yl-pyrimidin-4-ylamino)-phenyl]-isonicotinamide trifluoroacetate]
186 to 188 °C	COCCC(CCOC)c1cccc(C(=O)Nc2ccc(Nc3cc(-c4cccc5c4oc4ccccc45)ncn3)cc2)c1 [Compound 16, N-[4-(6-Dibenzofuran-4-yl-pyrimidin-4-ylamino)-phenyl]-3-[3-methoxy-1-(2-methoxyethyl)-propyl]-benzamide]
> 320 °C	CC(C)(C)OC(=O)Nc1ccc(CC(=O)Nc2ccc(Nc3cc(-c4cccc5c4oc4ccccc45)ncn3)cc2)cc1 [Compound 21, tert-Butyl N-(4-{[4-(6-dibenzofuran-4-yl-pyrimidin-4-ylamino)-phenylcarbamoyl]-methyl}-phenyl)-carbamate]
259 to 261 °C	CC(C)(C)OC(=O)N1CCCC(c2ccc(C(=O)Nc3ccc(Nc4cc(-c5cccc6c5oc5ccccc56)ncn4)cc3)cc2)C1 (stereo not drawn) [Compound 20, tert-Butyl 3-{4-[4-(6-Dibenzofuran-4-yl-pyrimidin-4-ylamino)-phenylcarbamoyl]-phenyl}-piperidin-1-carboxylate]
202 °C	NCCc1ccc(C(=O)Nc2ccc(Nc3cc(-c4cccc5c4oc4ccccc45)ncn3)cc2)cc1.O=C(O)C(F)(F)F [Compound 55, 4-(2-Amino-ethyl)-N-[4-(6-dibenzofuran-4-yl-pyrimidin-4-ylamino)-phenyl]-benzamide trifluoroacetate]
261 to 263 °C	CC(C)(C)c1ccc(C(=O)Nc2ccc(Nc3cc(-c4cccc5c4oc4ccccc45)ncn3)cc2)cc1 [Compound 8, 4-tert-Butyl-N-[4-(6-dibenzofuran-4-yl-pyrimidin-4-ylamino)-phenyl]-benzamide]
237 °C	CC(C)(C)OC(=O)NCc1cccc(C(=O)Nc2ccc(Nc3cc(-c4cccc5c4oc4ccccc45)ncn3)cc2)c1 [Compound 22, tert-Butyl N-{3-[4-(6-Dibenzofuran-4-yl-pyrimidin-4-ylamino)-phenylcarbamoyl]-benzyl}-carbamate]
225 to 232 °C	CN(C)c1cccc(C(=O)Nc2ccc(Nc3cc(-c4cccc5c4oc4ccccc45)ncn3)cc2)c1 [Compound 10, N-[4-(6-Dibenzofuran-4-yl-pyrimidin-4-ylamino)-phenyl]-3-dimethylamino-benzamide]
145 to 150 °C	NCc1ccc(C(=O)Nc2ccc(Nc3cc(-c4cccc5c4oc4ccccc45)ncn3)cc2)cn1.O=C(O)C(F)(F)F [Compound 64, 6-Aminomethyl-N-[4-(6-dibenzofuran-4-yl-pyrimidin-4-ylamino)-phenyl]-nicotinamide trifluoroacetate]
> 340 °C	CC(C)(C)OC(=O)Nc1ccccc1C(=O)Nc1ccc(Nc2cc(-c3cccc4c3oc3ccccc34)ncn2)cc1 [Compound 18, tert-Butyl N-{2-[4-(6-Dibenzofuran-4-yl-pyrimidin-4-ylamino)-phenylcarbamoyl]-phenyl}-carbamate]
245 °C	CC(C)(C)OC(=O)NCc1ccnc(C(=O)Nc2ccc(Nc3cc(-c4cccc5c4oc4ccccc45)ncn3)cc2)c1 [Compound 24, tert-Butyl N-{2-[4-(6-Dibenzofuran-4-yl-pyrimidin-4-ylamino)-phenylcarbamoyl]-pyridin-4-ylmethyl}-carbamate]
195 to 205 °C	NCC(C(=O)Nc1ccc(Nc2cc(-c3cccc4c3oc3ccccc34)ncn2)cc1)c1ccc(Cl)c(Cl)c1.O=C(O)C(F)(F)F (stereo not drawn) [Compound 75, 3-Amino-N-[4-(6-dibenzofuran-4-yl-pyrimidin-4-ylamino)-phenyl]-2-(3,4-dichloro-phenyl)-propionamide trifluoroacetate]

Reference: patent US7879853B2, “4,6-disubstituted pyrimidines and their use as protein kinase inhibitors” (Bayer Schering Pharma AG, priority 2004, dated 2011)
